Source: patent publication US8466118B2, “Modulation of blood brain barrier protein expression” (Saint Louis University, priority 2007, dated 2013)
Oligonucleotides are written 5' to 3', each unit as a sugar letter and its base; * is a phosphorothioate linkage, no mark a phosphodiester; rarer units and linkages stand in square brackets, end groups in braces. Plain capitals give the bases only. No end group written: not given here. d = 2'-deoxy (DNA)

Key:
[1] = target: T1, beta-F1 ATPase (Mus musculus, UniProt P56480); test: Brain perfusion uptake of I-PACAP27/I-PACAP38 after iv antisense; assay type: in vivo; conditions: single tail vein injection 24 h before study, 10 μg/mouse
T1 construct: from tissue; host or cells: brain / blood-brain barrier of living mice (CD-1; SAMP8 in the T-maze study)
Method: To test the effectiveness of PTS-6 antisenses after their intravenous administration, two month old male CD-1 mice kept on a 12/12 hour light/dark cycle with food and water freely available were given an injection by tail vein of 0.9% saline with or without 10 μg/mouse of each of the three antisenses. To determine the specificity of the PTS-6 antisense on I-PACAP27 efflux, three other antisenses were also injected iv. These were:
After 24 h, the mice were anesthetized with urethane and both jugular veins exposed. The thorax was opened, the descending thoracic aorta clamped, both jugular veins severed, and lactated Ringer's solution containing I-PACAP27 (250,000 cpm/ml) perfused through the left ventricle of the heart at the rate of 2 ml/min. ^131I-PACAP38 (hereafter referred to as I-PACAP38) was perfused in some mice treated with PTS-6 antisense. After 5 min, the perfusion was stopped and 20 ml of lactated Ringer's solution was infused through the left ventricle of the heart to wash out the vascular space of the brain. The level of radioactivity was determined in the brain and in an aliquot of the perfusion fluid and results expressed as the brain/perfusion ratio in units of μl/g.

[2] = CNS pharmacokinetics of iv P-Olg (influx rate, saturability, capillary depletion, regional uptake); assay type: in vivo, mouse; conditions: for distribution between brain capillaries and parenchyma (capillary depletion) / saturability of brain uptake: 30 min after iv; for distribution between brain capillaries and parenchyma (capillary depletion): with vascular washout; for saturability of brain uptake: co-administration of 10 μg unlabeled PS-ODN; for rate of brain uptake (Ki): iv (jugular), multiple-time regression 2-30 min; for mean regional uptake into hippocampus (HPC) versus frontal cortex (FC) and whole brain (WB): iv, 2-30 min
Method: For this analysis, the brain/serum ratios for time points ranging from 2 to 30 min after i.v. injection was plotted against their respective exposure times (Expt). Expt is used instead of real time because this value corrects for the clearance of the injected substance from the blood. Without this correction, the influx rate would be overestimated. […] Expt will be calculated using the following formula: Expt=[∫^toCp(t)dt]/Cpt, where t is time, Cp represents the level of radioactivity in the serum and Cpt is the level of radioactivity in the serum at time t.
(§1) Calculation of the percent of injected dose taken up per gram of tissue: For the purpose of these studies, mice were injected iv (into the jugular vein) with P-19 mer or P-23 mer (5×10^5 cpm/200 μl of Lactated Ringer's solution (Baxter Healthcare Corporation, Deerfiled, Ill.) supplemented with 1% BSA). […] Serum levels of radioactivity were determined by counting 50 μl of serum in a gamma counter.
(§2) The % of the injected dose taken up by each gram of either whole brain, brain region (hippocampus or frontal cortex) or liver tissue (% Inj dose/g brain) was calculated using the following formula: % Inj dose/g brain=100(Am/Cpt−Vi)Cpt/Inj, where Am/Cpt represents the brain/serum ratio at time t, and Inj is the mean dose injected i.v. Subtracting Vi from the tissue/serum ratio corrects for P-Olg in the vascular space of the whole tissue. This will remove the vascular component so that the quantities expressed represent only the P-Olg that has been taken up by tissue. The values for % Inj dose/g brain will be plotted against their respective time points (min).
Measuring saturability of brain uptake for cocktail ODNs: To determine if brain uptake of each individual P-Olg was saturable, 10 μg/mouse of unlabeled cocktail PS-ODN (either 19 mer or 23 mer) was included in the i.v. injection of either P-19 mer or P-23 mer at a dose of 5×10^5 cpm/200 μl of Lactated Ringer's solution supplemented with 1% BSA [LR-BSA]). Brain and serum samples were collected 30 min after i.v. injection. Results were expressed as brain/serum ratios.
In these studies, mice received an iv injection of either P-19 mer or P-23 mer at a dose of 5×10^5 cpm/200 μl LR-BSA into the jugular vein. Washout of the vascular space was performed to remove any substances that were intravascular or loosely adhered to the capillary lumen of the brain microvasculature.
Mice were anesthetized with 40% urethane and, at 30 min after i.v. injection of P-Olg into the jugular vein, the abdomen was opened and arterial blood was collected from the abdominal aorta. Next, the thorax was opened with a midline sternal incision and the descending thoracic aorta was clamped to cut off the circulation to the lower body. Both jugular veins were severed and an 18-gauge needle connected to a 20 ml syringe containing lactated Ringers (LR) solution was inserted into the left ventricle of the heart. All 20 ml of LR were infused into the mouse heart over a period of 1-2 min. This washes out the vascular space of the brain and drains out the severed jugular veins. […] Next, the homogenate was vortexed and homogenized a second time (3 strokes). All homogenization steps were performed at 4° C. on ice. […] After centrifugation, the supernatant containing the brain parenchyma was separated from the pellet (containing the brain microvasculature) and the level of radioactivity was determined with a Beckman scintillation counter.
Results from the capillary depletion experiments were expressed as the volume of distribution in the brain or capillaries for the injected substance. Volume of distribution (VD) values were expressed as tissue (parenchyma or capillary)/serum ratios and were calculated for both fractions using the following formula: VD=(cpm/gram of tissue)/(cpm/ml of serum)

[3] = Percent of iv injected dose taken up per gram of brain or liver; assay type: in vivo, mouse
Method: as §1, §2
For these studies, the PS-ODNs were delivered iv and relative uptake into the brain and liver (from 5-30 min) were studied.

[4] = Brain-to-blood efflux rate of icv P-Olg; assay type: in vivo, mouse; conditions: for half-life of efflux from the brain: first 20 min after icv administration; for rate of brain efflux: icv injection
Method: First, mice were anesthetized with an i.p. injection of 40% urethane. After the scalp was removed, a hole was made through the cranium (1.0 mm lateral and 0.5 mm posterior to bregma) with a 26-gauge needle. All of the needle except 2.5 to 3.0 mm of the tip was covered by PE-10 tubing. […] Injections were made into the lateral ventricle (icv) with a 1.0 μl Hamilton syringe.
In experiments in which brain efflux of the cocktail PS-ODNs were determined, each P-Olg (either P-19 mer or P-23 mer) was studied separately. A P-Olg (5×10^3 cpm/μl) was administered by icv injection. Mice were then decapitated at 2, 5, and 20 min after injection and the brain was removed. The amount of radioactivity present in the brain was measured by a scintillation counter. The amount of radioactivity in the brain at t=0 was estimated in mice overdosed with urethane. […] Brains from these mice were removed 10 min after injection. The log of the mean % of the injected dose of radioactivity (amount detected/amount injected*100=% Inj Dose) in each brain was plotted against time (min) and linear regression analysis was used to create a line between these time points.

[5] = target: Type-I binding sites; conditions: anterior pituitary and hypothalamus, I-PACAP27 radioligand; cited from earlier work
[6] = test system: mouse brain microvessels; test: I-PACAP27 binding to isolated mouse brain microvessels; conditions: for displacement of I-PACAP27 binding by unlabeled peptide: 50 nM unlabeled peptide, 2.5 min
Method: Binding Study. Freshly isolated microvessels (30 μg protein) were resuspended in 45 μl of incubation buffer (129 mM NaCl, 2.5 mM KCl, 7.4 mM Na2HPO4, 1.3 mM KH2PO4, 0.63 mM CaCl2, 0.74 mM MgSO4, 5.3 mM glucose, 0.1 mM ascorbic acid, pH 7.4) containing 1% bovine serum albumin (BSA). Microvessel protein levels were determined with the Biorad DC protein assay kit (Hercules, Calif.). Incubation buffer, PACAP27 (4 μl of 0.8 nM), and any additives as indicated below were mixed with the 45 μl suspension of cells to a final volume of 60 μl (to give a final PACAP27 concentration of 53 pM) and incubated for 2.5 min at room temperature unless otherwise specified. At the end of incubation, samples were assayed for protein-bound radioactivity by vacuum filtration through Gelman Sciences glass microfiber filters (Ann Arbor, Mich.) pretreated with 0.5% polyethyleneimine. Filters were washed three times with 4 ml of incubation buffer at 4° C. The radioactivity trapped on the filters was measured using a gamma-counter. Nonspecific binding was determined in the absence of microvessels and under the above conditions was 20% of the total binding (TB). The specific binding was calculated as total binding minus non-specific binding and expressed as a percentage. All experiments were performed in triplicate on at least three occasions and the results reported as means with their standard errors.
Inhibition of Specific Binding of PACAP27. Self-inhibition was tested by adding varying amounts of unlabeled PACAP27. The percent of specific binding was calculated by taking the % TB for microvessels incubated with 0.8 nM PACAP27 as 100% and without microvessel incubation as 0%. An n of 3 was used per concentration. The fmol specifically bound was calculated by dividing the percent of specific binding by 100 and multiplying by the pM (PACAP27 and any unlabeled PACAP27 combined) of the incubation solution and by the volume. This was plotted against the nM in the media and the relation fitted to a one-site hyperbolic binding model.
Inhibition of I-PACAP27 Binding by PACAP Related Peptides. The effects of 50 nM of unlabeled PACAP27, PACAP38, the PACAP antagonists PACAP 6-27 and PACAP 6-38 (Bachem, Torrance, Calif.), and VIP (Sigma, St. Louis, Mo.) on PACAP27 specific binding was determined. Results were expressed as percent of control.

T1 sequence (P56480 47-529): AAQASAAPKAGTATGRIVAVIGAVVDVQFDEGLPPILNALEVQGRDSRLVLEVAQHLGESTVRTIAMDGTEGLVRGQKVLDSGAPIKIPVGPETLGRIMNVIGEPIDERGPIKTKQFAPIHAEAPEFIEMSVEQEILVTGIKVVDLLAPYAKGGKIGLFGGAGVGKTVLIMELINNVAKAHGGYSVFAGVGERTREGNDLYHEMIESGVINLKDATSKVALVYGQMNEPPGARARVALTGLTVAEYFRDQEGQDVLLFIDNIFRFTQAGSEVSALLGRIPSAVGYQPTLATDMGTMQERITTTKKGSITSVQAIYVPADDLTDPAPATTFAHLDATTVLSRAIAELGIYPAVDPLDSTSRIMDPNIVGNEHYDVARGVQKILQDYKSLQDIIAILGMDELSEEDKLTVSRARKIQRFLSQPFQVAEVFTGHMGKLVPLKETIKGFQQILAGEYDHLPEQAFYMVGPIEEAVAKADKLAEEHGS

For “5′-(_P═S)GATCACGTACACATCGACACCAGTCGCCATGACTGAGCTT (dG*dA*dT*dC*dA*dC*dG*dT*dA*dC*dA*dC*dA*dT*dC*dG*dA*dC*dA*dC*dC*dA*dG*dT*dC*dG*dC*dC*dA*dT*dG*dA*dC*dT*dG*dA*dG*dC*dT*dT; listed as Mus musculus) [random 42-mer]”, the “uptake of I-PACAP27 delivered by brain perfusion” value [1] was “no statistically significant effect”.

With “5′-(_P═S)GTGTGGGCCGATGCAAACAGCAG-3′ (antisense dG*dT*dG*dT*dG*dG*dG*dC*dC*dG*dA*dT*dG*dC*dA*dA*dA*dC*dA*dG*dC*dA*dG; listed as Mus musculus) [P-23 mer]” the “distribution between brain capillaries and parenchyma (capillary depletion)” value [2] was “detected in the target tissue, the brain capillaries”, the “saturability of brain uptake” value [2] was “significantly reduced” and the “rate of brain uptake (Ki)” value [2] was 0.20 µL/g/min. For the same substance, the “mean regional uptake into hippocampus (HPC) versus frontal cortex (FC) and whole brain (WB)” value [2] was “significantly greater”, the “percentage taken up by each gram of brain” value ([3]; 5 min after iv injection) was 0.010 % Inj dose/g and the “percentage taken up by each gram of liver” value ([3]; 5 min after iv injection) was 2.71 % Inj dose/g. The “percentage taken up by each gram of brain” value ([3]; 10 min after iv injection) was 0.044 % Inj dose/g, the “percentage taken up by each gram of liver” value ([3]; 10 min after iv injection) was 5.33 % Inj dose/g and the “percentage taken up by each gram of brain” value ([3]; 30 min after iv injection) was 0.052 % Inj dose/g. For the same substance, the “percentage taken up by each gram of liver” value ([3]; 30 min after iv injection) was 7.67 % Inj dose/g, the “half-life of efflux from the brain” value [4] was 0.797 h and the “rate of brain efflux” value [4] was 0.0063 % of the injected dose/min.

For “5′-(_P═S)TGATTTGGTCTCTGCAGGC-3′ (antisense dT*dG*dA*dT*dT*dT*dG*dG*dT*dC*dT*dC*dT*dG*dC*dA*dG*dG*dC; listed as Mus musculus) [P-19 mer]”, the “distribution between brain capillaries and parenchyma (capillary depletion)” value [2] was “detected in the target tissue, the brain capillaries”, the “saturability of brain uptake” value [2] was “not significantly decreased” and the “rate of brain uptake (Ki)” value [2] was 0.18 µL/g/min. The “mean regional uptake into hippocampus (HPC) versus frontal cortex (FC) and whole brain (WB)” value [2] was “greater than the uptake into the WB”, the “percentage taken up by each gram of brain” value ([3]; 5 min after iv injection) was 0.042 % Inj dose/g and the “percentage taken up by each gram of liver” value ([3]; 5 min after iv injection) was 447 % Inj dose/g. The “percentage taken up by each gram of brain” value ([3]; 10 min after iv injection) was 0.079 % Inj dose/g, the “percentage taken up by each gram of liver” value ([3]; 10 min after iv injection) was 5.54 % Inj dose/g and the “percentage taken up by each gram of brain” value ([3]; 30 min after iv injection) was 0.116 % Inj dose/g. The “percentage taken up by each gram of liver” value ([3]; 30 min after iv injection) was 10.43 % Inj dose/g, the “half-life of efflux from the brain” value [4] was 3.858 h and the “rate of brain efflux” value [4] was 0.0013 % of the injected dose/min.

For “PACAP38: biologically active form of pituitary adenylate cyclase-activating polypeptide”, the Kd [5] is listed as about 500 pM and the “displacement of I-PACAP27 binding by unlabeled peptide” value (from here on “displacement of I-PACAP27 binding”) ([6]; room temperature) is listed as “PACAP38>PACAP27>PACAP(6-38)>PACAP(6-27)”.

For PACAP [PACAP27], the Kd [5] is listed as about 500 pM, the “time at which specific binding reached a maximum” value ([6]; 53 pM, room temperature) is listed as “about 20 min” and the “displacement of I-PACAP27 binding” value ([6]; room temperature) is listed as “PACAP38>PACAP27>PACAP(6-38)>PACAP(6-27)”. The “amount of unlabeled PACAP27 above which binding was inhibited competitively” value ([6]; self-inhibition of I-PACAP27 binding) was “above 30 ng”.

For “PACAP(6-27): PACAP antagonist (FTDSYSRYRKQMAVKKYLAAVL; ends and bridges not checked)”, the “displacement of I-PACAP27 binding” value ([6]; room temperature) was “PACAP38>PACAP27>PACAP(6-38)>PACAP(6-27)”.

In the case of “PACAP(6-38): PACAP antagonist (FTDSYSRYRKQMAVKKYLAAVLGKRYKQRVKNK; ends and bridges not checked)”, the “displacement of I-PACAP27 binding” value ([6]; room temperature) is reported as “PACAP38>PACAP27>PACAP(6-38)>PACAP(6-27)”.

For vasoactive intestinal polypeptide [VIP], the Kd [5] is given as over 500000 pM and the “displacement of I-PACAP27 binding” value ([6]; room temperature) is given as “not affected”.
